According to patent US20250136606A1, “MODULATORS OF TRPML, THEIR COMPOSITIONS AND METHODS OF USE” (Caraway Therapeutics, Inc., priority 2021, published 2025):

Legend:
Assay type in all cases: cell-based
TRPML3 = target: T1, TRPML3 (Homo sapiens, UniProt Q8TDD5); experiment: Fluorescent TRPML3 assay (performed as for TRPML1, substituting the TRPML3 subtype)
T1 construct: expressed in transfected cells
T1 sequence (Q8TDD5 1-553): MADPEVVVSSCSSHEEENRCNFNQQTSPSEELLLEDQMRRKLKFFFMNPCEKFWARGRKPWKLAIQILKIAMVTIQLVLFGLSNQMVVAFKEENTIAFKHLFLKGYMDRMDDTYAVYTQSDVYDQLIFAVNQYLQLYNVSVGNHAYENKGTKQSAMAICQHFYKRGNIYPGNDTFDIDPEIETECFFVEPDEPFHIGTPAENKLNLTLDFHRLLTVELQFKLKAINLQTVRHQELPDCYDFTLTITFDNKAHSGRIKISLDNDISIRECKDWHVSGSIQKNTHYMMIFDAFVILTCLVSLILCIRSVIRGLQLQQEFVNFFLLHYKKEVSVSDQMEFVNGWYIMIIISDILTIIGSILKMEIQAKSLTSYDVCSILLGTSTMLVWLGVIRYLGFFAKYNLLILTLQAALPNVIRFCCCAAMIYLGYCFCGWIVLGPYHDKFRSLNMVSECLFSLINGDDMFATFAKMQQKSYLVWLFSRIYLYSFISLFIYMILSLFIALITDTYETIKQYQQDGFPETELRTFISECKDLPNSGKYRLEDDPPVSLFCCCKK
How it was run: (§1)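 HEK-293 Trex, dox-induced (0.5 ug/mL), mutated for surface expression. Fluo4-AM 1 micromolar load ~60 min, dark; buffer modified Ringer's, 10 mM Ca. Cpds 20 micromolar–6 nanomolar final, half-log, n=3. Read ex 480/em 540; % activity vs controls; EC50 nonlinear fit.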

TRPML2 = target: T2, TRPML2 (Homo sapiens, UniProt Q8IZK6); experiment: Fluorescent TRPML2 assay (performed as for TRPML1, substituting the TRPML2 subtype)
T2 construct: expressed in transfected cells
T2 sequence (Q8IZK6 1-566): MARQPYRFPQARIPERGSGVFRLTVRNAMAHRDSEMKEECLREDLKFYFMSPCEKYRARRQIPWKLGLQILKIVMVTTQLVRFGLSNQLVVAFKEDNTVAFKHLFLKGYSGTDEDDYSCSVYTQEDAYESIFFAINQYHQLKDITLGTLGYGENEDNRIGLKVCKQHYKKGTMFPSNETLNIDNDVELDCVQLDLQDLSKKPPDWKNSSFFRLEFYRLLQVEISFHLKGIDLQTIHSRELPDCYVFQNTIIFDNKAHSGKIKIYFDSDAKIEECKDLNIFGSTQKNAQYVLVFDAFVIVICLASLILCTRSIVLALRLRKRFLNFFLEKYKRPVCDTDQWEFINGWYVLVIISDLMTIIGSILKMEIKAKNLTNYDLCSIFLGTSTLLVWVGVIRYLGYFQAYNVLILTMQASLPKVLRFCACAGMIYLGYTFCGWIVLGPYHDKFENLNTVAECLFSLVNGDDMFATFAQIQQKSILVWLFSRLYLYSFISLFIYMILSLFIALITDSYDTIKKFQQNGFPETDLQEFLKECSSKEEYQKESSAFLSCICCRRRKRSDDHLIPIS
How it was run: as §1

TRPML1 = TRPML1 (Homo sapiens, UniProt Q9GZU1); experiment: Fluorescent TRPML1 assay (Fluo4-AM calcium fluorescence in doxycycline-induced HEK-293 Trex cells)
How it was run: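 EC50 values come from non-linear regression of percent activity, normalized to on-plate positive and negative controls, with fluorescence read at 480 nm excitation and 540 nm emission. Fluo4-AM-loaded (1 µM) doxycycline-induced HEK-293 Trex cells expressing mutated human TRPML1 were exposed in 10 mM calcium Ringer's to 6 nM–20 µM compound, in triplicate.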

Sequence of TRPML1 (Q9GZU1 whole entry L15A/L16A/L577A/L578A, form open): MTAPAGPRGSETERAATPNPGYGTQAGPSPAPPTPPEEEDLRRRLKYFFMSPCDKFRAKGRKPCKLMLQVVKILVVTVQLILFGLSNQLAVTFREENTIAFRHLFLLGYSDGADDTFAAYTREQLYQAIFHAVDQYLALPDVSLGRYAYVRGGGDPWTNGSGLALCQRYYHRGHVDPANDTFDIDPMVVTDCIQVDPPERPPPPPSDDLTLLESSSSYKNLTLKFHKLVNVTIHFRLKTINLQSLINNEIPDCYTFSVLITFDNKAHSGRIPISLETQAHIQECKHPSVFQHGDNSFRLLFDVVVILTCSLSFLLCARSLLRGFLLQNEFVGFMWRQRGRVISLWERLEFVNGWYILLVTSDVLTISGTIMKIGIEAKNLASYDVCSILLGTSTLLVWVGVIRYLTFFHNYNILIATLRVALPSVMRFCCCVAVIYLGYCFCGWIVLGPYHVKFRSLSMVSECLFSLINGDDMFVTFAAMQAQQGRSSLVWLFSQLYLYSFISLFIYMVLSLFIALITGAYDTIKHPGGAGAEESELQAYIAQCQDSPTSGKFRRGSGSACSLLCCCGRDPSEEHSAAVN

| SMILES | EC50 (TRPML3) [nM] | EC50 (TRPML2) [nM] | EC50 (TRPML1) [nM] |
| --- | --- | --- | --- |
| Cc1cn(-c2ccc(F)cc2)c2ncnc(N3C[C@@H](C)N(C(=O)OC(C)(C)C)C[C@@H]3C)c12 [Compound 676, tert-butyl (2R,5S)-4-(7-(4-fluorophenyl)-5-methyl-7H-pyrrolo[2,3-d]pyrimidin-4-yl)-2,5-dimethylpiperazine-1-carboxylate] | < 100 | 100 to 500 | < 100 |
| Cc1cn(-c2cc(F)cc(Cl)c2)c2ncnc(N3C[C@@H](C)N(C(=O)OC(C)(C)C)C[C@@H]3C)c12 [Compound 677, tert-butyl (2R,5S)-4-(7-(3-chloro-5-fluorophenyl)-5-methyl-7H-pyrrolo[2,3-d]pyrimidin-4-yl)-2,5-dimethylpiperazine-1-carboxylate] | < 100 | 100 to 500 | < 100 |
| Cc1cn(-c2cc(F)ccn2)c2ncnc(N3CCN(C(=O)OC(C)(C)C)[C@H](C)C3)c12 [Compound 678, tert-butyl (R)-4-(7-(4-fluoropyridin-2-yl)-5-methyl-7H-pyrrolo[2,3-d]pyrimidin-4-yl)-2-methylpiperazine-1-carboxylate] | 100 to 500 | 100 to 500 | 100 to 500 |
| Cc1cn(-c2cc(C(F)(F)F)ccn2)c2ncnc(N3CCN(C(=O)OC(C)(C)C)[C@H](C)C3)c12 [Compound 679, tert-butyl (R)-2-methyl-4-(5-methyl-7-(4-(trifluoromethyl)pyridin-2-yl)-7H-pyrrolo[2,3-d]pyrimidin-4-yl)piperazine-1-carboxylatee] | < 100 | < 100 | < 100 |
| Cc1cn(-c2cc(C#N)ccn2)c2ncnc(N3CCN(C(=O)OC(C)(C)C)[C@H](C)C3)c12 [Compound 680, tert-butyl (R)-4-(7-(4-cyanopyridin-2-yl)-5-methyl-7H-pyrrolo[2,3-d]pyrimidin-4-yl)-2-methylpiperazine-1-carboxylate] | < 100 | < 100 | < 100 |
| Cc1cn(-c2cc(F)ccn2)c2ncnc(N3CCN(C(=O)OC(C)(C)C)C[C@@H]3C)c12 [Compound 681, tert-butyl (S)-4-(7-(4-fluoropyridin-2-yl)-5-methyl-7H-pyrrolo[2,3-d]pyrimidin-4-yl)-3-methylpiperazine-1-carboxylate] | < 100 | < 100 | < 100 |
| Cc1cn(-c2cc(C(F)(F)F)ccn2)c2ncnc(N3CCN(C(=O)OC(C)(C)C)C[C@@H]3C)c12 [Compound 682, tert-butyl (S)-3-methyl-4-(5-methyl-7-(4-(trifluoromethyl)pyridin-2-yl)-7H-pyrrolo[2,3-d]pyrimidin-4-yl)piperazine-1-carboxylate] | < 100 | < 100 | < 100 |
| Cc1cn(-c2cc(F)cc(F)c2)c2ncnc(N3CCN(C(=O)OC(C)(C)C)C[C@@H]3C)c12 [Compound 687, tert-butyl (S)-4-(7-(3,5-difluorophenyl)-5-methyl-7H-pyrrolo[2,3-d]pyrimidin-4-yl)-3-methylpiperazine-1-carboxylate] | < 100 | 100 to 500 | < 100 |
| Cc1cn(-c2cncc(F)c2)c2ncnc(N3CCN(C(=O)OC(C)(C)C)C[C@@H]3C)c12 [Compound 689, tert-butyl (S)-4-(7-(5-fluoropyridin-3-yl)-5-methyl-7H-pyrrolo[2,3-d]pyrimidin-4-yl)-3-methylpiperazine-1-carboxylate] | 100 to 500 | 100 to 500 | < 100 |
| Cc1cn(-c2cc(F)cc(Cl)c2)c2ncnc(N3CCN(C(=O)OC(C)(C)C)C[C@@H]3C)c12 [Compound 693, tert-butyl (S)-4-(7-(3-chloro-5-fluorophenyl)-5-methyl-7H-pyrrolo[2,3-d]pyrimidin-4-yl)-3-methylpiperazine-1-carboxylate] | < 100 | 100 to 500 | < 100 |
| C[C@@H]1CN(c2ncnc3c2c(C(F)F)cn3-c2cccc(F)c2)[C@@H](C)CN1C(=O)OC(C)(C)C [Compound 695, tert-butyl (2R,5S)-4-(5-(difluoromethyl)-7-(3-fluorophenyl)-7H-pyrrolo[2,3-d]pyrimidin-4-yl)-2,5-dimethylpiperazine-1-carboxylate] | < 100 | 100 to 500 | < 100 |
| CCc1cn(-c2cc(C(F)(F)F)ccn2)c2ncnc(N3C[C@@H](C)N(C(=O)OC(C)(C)C)C[C@@H]3C)c12 [Compound 696, tert-butyl (2R,5S)-4-(5-ethyl-7-(4-(trifluoromethyl)pyridin-2-yl)-7H-pyrrolo[2,3-d]pyrimidin-4-yl)-2,5-dimethylpiperazine-1-carboxylate] | < 100 | < 100 | < 100 |
| CCc1cn(-c2cc(F)ccn2)c2ncnc(N3C[C@@H](C)N(C(=O)OC(C)(C)C)C[C@@H]3C)c12 [Compound 697, tert-butyl (2R,5S)-4-(5-ethyl-7-(4-fluoropyridin-2-yl)-7H-pyrrolo[2,3-d]pyrimidin-4-yl)-2,5-dimethylpiperazine-1-carboxylate] | < 100 | < 100 | < 100 |
| CC(C)c1cn(-c2cc(F)ccn2)c2ncnc(N3C[C@@H](C)N(C(=O)OC(C)(C)C)C[C@@H]3C)c12 [Compound 698, tert-butyl (2R,5S)-4-(7-(4-fluoropyridin-2-yl)-5-isopropyl-7H-pyrrolo[2,3-d]pyrimidin-4-yl)-2,5-dimethylpiperazine-1-carboxylate] | < 100 | 100 to 500 | < 100 |

More lines, now with the values ahead:

| EC50 (TRPML3) [nM] | EC50 (TRPML2) [nM] | EC50 (TRPML1) [nM] | SMILES |
| --- | --- | --- | --- |
| < 100 | 100 to 500 | < 100 | Cc1cn(-c2cccc(F)c2)c2ncnc(N3CCN(C(=O)OC(C)(C)C)C[C@@H]3C)c12 [Compound 683, tert-butyl (S)-4-(7-(3-fluorophenyl)-5-methyl-7H-pyrrolo[2,3-d]pyrimidin-4-yl)-3-methylpiperazine-1-carboxylate] |
| < 100 | < 100 | < 100 | Cc1cn(-c2cccc(C(F)(F)F)c2)c2ncnc(N3CCN(C(=O)OC(C)(C)C)C[C@@H]3C)c12 [Compound 684, tert-butyl (S)-3-methyl-4-(5-methyl-7-(3-(trifluoromethyl)phenyl)-7H-pyrrolo[2,3-d]pyrimidin-4-yl)piperazine-1-carboxylate] |
| < 100 | 500 to 2000 | < 100 | Cc1cn(-c2ccccc2)c2ncnc(N3CCN(C(=O)OC(C)(C)C)C[C@@H]3C)c12 [Compound 685, tert-butyl (S)-3-methyl-4-(5-methyl-7-phenyl-7H-pyrrolo[2,3-d]pyrimidin-4-yl)piperazine-1-carboxylate] |
| < 100 | < 100 | < 100 | Cc1cn(-c2cccc(C#N)c2)c2ncnc(N3CCN(C(=O)OC(C)(C)C)C[C@@H]3C)c12 [Compound 686, tert-butyl (S)-4-(7-(3-cyanophenyl)-5-methyl-7H-pyrrolo[2,3-d]pyrimidin-4-yl)-3-methylpiperazine-1-carboxylate] |
| < 100 | < 100 | < 100 | Cc1cn(-c2cccc(Cl)c2)c2ncnc(N3CCN(C(=O)OC(C)(C)C)C[C@@H]3C)c12 [Compound 688, tert-butyl (S)-4-(7-(3-chlorophenyl)-5-methyl-7H-pyrrolo[2,3-d]pyrimidin-4-yl)-3-methylpiperazine-1-carboxylate] |
| < 100 | 500 to 2000 | < 100 | Cc1cn(-c2ccccn2)c2ncnc(N3CCN(C(=O)OC(C)(C)C)C[C@@H]3C)c12 [Compound 690, tert-butyl (S)-3-methyl-4-(5-methyl-7-(pyridin-2-yl)-7H-pyrrolo[2,3-d]pyrimidin-4-yl)piperazine-1-carboxylate] |
| < 100 | < 100 | < 100 | Cc1cn(-c2ccc(F)cc2)c2ncnc(N3CCN(C(=O)OC(C)(C)C)C[C@@H]3C)c12 [Compound 692, tert-butyl (S)-4-(7-(4-fluorophenyl)-5-methyl-7H-pyrrolo[2,3-d]pyrimidin-4-yl)-3-methylpiperazine-1-carboxylate] |
